Laboratory results as given in patent US20250161248A1, “Treating Chronic Myelomonocytic Leukemia with CXCL8 Receptor Inhibitors” (Institut Gustave Roussy, priority 2023, published 2025).
Entries after “also recorded” stand apart in the source; their conditions may differ.

Experiments:
[1] = test system: healthy donor CD34+ cells (cord blood, bone marrow); assay: Methylcellulose colony formation assay (healthy donor cells); assay type: cell-based, human; conditions: for colony forming capacity of wildtype CD34+ cells (total colony output): inhibitor 10 mM (so in the source) in combination with CXCL8 10 ng/mL, FIG. 6F
Method: (§1) Reagents, CXCR1/2 inhibitors Reparixin and Ladarixin were from MedChemTronica and Clinisciences, respectively, dissolved in dimethylsulfoxide (DMSO). Stem cell factor recombinant (SCF), interleukin-3 recombinant (IL-3), thrombopoietin recombinant (TPO), Fms-like tyrosine kinase 3 recombinant (FLT-3) and Interleukin 8 (IL-8 or CXCL8) were from Peprotech.
(§2) CD34^+ cultures, CD34^+ cells were cultured for 72 h at 1×10^5 cells/ml in complete MEM-alpha medium, SCF (50 ng/mL), IL-3 (10 ng/mL), TPO (10 ng/mL) and FLT-3 (50 ng/mL […]), to which CXCL8 was added in a 37° C. incubator with 5% CO2. Cells were counted after Trypan blue staining. For methylcellulose assays, CD34+ cells were plated in duplicate, at 500 cells with 1 mL complete methylcellulose (MethoCult™ H4034 Optimum, Stem cell) with indicated doses of CXCL8. Colonies were enumerated and phenotyped at day 14.

[2] = test system: wildtype CD34+ cells (cord blood, healthy donor bone marrow); assay: CD34+ liquid culture, cell output/proliferation (healthy donor cells); assay type: cell-based, human; conditions: for proliferation of wildtype CD34+ cells in liquid culture: inhibitor 10 uM in combination with CXCL8 10 ng/mL, FIG. 12E
Method: as §1, §2

CMML CD34+ cells [3] = assay: Methylcellulose colony formation assay (CMML cells); assay type: cell-based, human; conditions: methylcellulose with CXCL8
Method: as §2

CMML CD34+ cells [4] = assay: CD34+ liquid culture, cell output/proliferation (CMML cells); assay type: cell-based, human; conditions: liquid culture with CXCL8
Method: as §2

[5] = test system: HER-2 negative metastatic breast cancer; conditions: phase I, in combination with paclitaxel chemotherapy; cited from earlier work
[6] = test system: thyroid cancer tumor cells; conditions: in vitro; cited from earlier work
CXCR1 and CXCR2 = conditions: CXCR1 over CXCR2; cited from earlier work
[7] = test system: ischemia-reperfusion injury; conditions: clinical studies; cited from earlier work
[8] = test system: triple negative breast cancer; conditions: phase II, in combination with paclitaxel; cited from earlier work
uveal melanoma = conditions: animal model of uveal melanoma; cited from earlier work
[9] = test system: pancreatic ductal adenocarcinoma (PDAC); conditions: cited from earlier work
[10] = test system: neutrophil-dependent airway inflammation; conditions: mice; cited from earlier work

| Compound | colony number / colony forming capacity of healthy cord blood or bone marrow CD34+ cells ([1]; 14 days, CXCL8, CFU-GM and CFU-E affected, FIG. 6B, 6F) | cord blood CD34+ cell proliferation ([2]; liquid culture with indicated doses of CXCL8, FIG. 6A) | adult healthy donor bone marrow CD34+ cell proliferation ([2]; liquid culture, CXCL8 10 ng/mL, 72 hours, FIG. 12A, 12E) | CMML CD34+ cell proliferation in colony formation assays (CMML CD34+ cells [3]) | CMML CD34+ cell proliferation (CMML CD34+ cells [4]) | healthy donor CD34+ colony formation in presence of IGRAN supernatant ([1]; IGRAN supernatant plus reparixin 10 mM (so in the source), FIG. 6G) | colony forming capacity of wildtype CD34+ cells (total colony output) [1] | proliferation of wildtype CD34+ cells in liquid culture [2] | tolerability [5] | direct anti-tumor activity, tumor cell proliferation [6] | potency to inhibit CXCR1 activity relative to CXCR2 (CXCR1 and CXCR2) [fold] | neutrophil recruitment and inflammatory injury in ischemia-reperfusion [7] | clinical benefit compared to paclitaxel alone [8] | TAM polarization (uveal melanoma) | tumor cell migration (uveal melanoma) | antitumor activity of combination ([9]; mouse PDAC model, ladarixin combined with an anti-PD-1 monoclonal antibody) | activity in PDAC model ([9]; mouse model, ladarixin) | neutrophil-dependent airway inflammation [10] |
| --- | --- | --- | --- | --- | --- | --- | --- | --- | --- | --- | --- | --- | --- | --- | --- | --- | --- | --- |
| CXCL8: Interleukin 8 (IL-8 or CXCL8) chemokine from Peprotech, added to CD34+ cultures | decrease in colony number; also recorded: decreased colony forming capacity | dose-dependent inhibition | decreased | not affected | failed to inhibit |  |  |  |  |  |  |  |  |  |  |  |  |  |
| CC(C)Cc1ccc([C@@H](C)C(=O)NS(C)(=O)=O)cc1 [reparixin, R-(−)-2-(4-isobutylphenyl)propionyl methansulfonamide] |  |  |  |  |  | blocked the inhibitory effects of this supernatant | restored | restored | well tolerated | inhibiting tumor cell proliferation | 400 | effectively regulate neutrophil recruitment and attenuate inflammatory injury | no additional clinical benefit |  |  |  |  |  |
| C[C@@H](C(=O)NS(C)(=O)=O)c1ccc(OS(=O)(=O)C(F)(F)F)cc1 [ladarixin, 4-[(2 R)-1-oxo-1-(methanesulfonamido)propan-2-yl]phenyl trifluoromethanesulfonate] |  |  |  |  |  |  | restored | restored |  |  |  |  |  | repolarized TAMs to a M1 phenotype | inhibited tumor cell migration | improved antitumor activity compared to either agent alone | significant activity | improves neutrophil-dependent airway inflammation |
